Patent US20250213482A1, “OXYGEN-ENHANCED ADAPTIVE FUNCTIONAL BEVERAGE FOR ANTI-AGING AND METHOD OF PREPARATION” (priority 2025, published 2025)

Tests used:
[1] = PQQ supplementation over an 8-week period; format: in vivo; conditions: 8-week period of supplementation
Text: In another embodiment, PQQ supplementation promotes mitochondrial biogenesis and boosts oxidative metabolism, resulting in increased energy production. […] PQQ acts as a potent antioxidant, reducing oxidative stress by neutralizing harmful free radicals and lowering inflammation. By protecting neurons from oxidative damage, PQQ supplementation contributes to improved cognitive performance, including enhanced memory, attention, and mental clarity.

[2] = daily intake of NMN for 90 days, long-term safety; format: in vivo; conditions: 500 mg daily for 90 days

O=C(O)c1cc(C(=O)O)c2c(n1)C(=O)C(=O)c1cc(C(=O)O)[nH]c1-2 [PQQ, pyrroloquinoline quinone]
cognitive function [1]: enhances cognitive function | oxidative stress [1]: reduces oxidative stress

NC(=O)c1ccc[n+]([C@@H]2O[C@H](COP(=O)([O-])O)[C@@H](O)[C@H]2O)c1 [NMN, nicotinamide mononucleotide]
impact on blood sugar, liver function, or kidney function [2]: no impact on blood sugar, liver function, or kidney function
